# According to ChEMBL document CHEMBL5380816, “Inclusion of Nitrofurantoin into the Realm of Cancer Chemotherapy via Biology-Oriented Synthesis and Drug Repurposing” (J Med Chem, 2023):
# Calls of active or inactive are those of the source. The calls are words filed in the database; no cut-off is given here.
# Experiments:
# Caco-2 [1] = assay: Induction of apoptosis in human Caco-2 cells assessed as early apoptotic cells incubated at 0.097 uM for 72 hrs by annexin V-FITC based propidium iodide dual staining assay (reference value: 0.07%); type: functional
# HeLa [2] = assay: Induction of apoptosis in human HeLa cells assessed as early apoptotic cells incubated at 0.097 uM for 72 hrs by annexin V-FITC based propidium iodide dual staining assay (reference value: 2.77%); type: functional
# MCF7 [3] = assay: Induction of apoptosis in human MCF7 cells assessed as late apoptotic cells incubated at 0.097 uM for 72 hrs by annexin V-FITC based propidium iodide dual staining assay (reference value: 0.01%); type: functional
# Caco-2 [4] = assay: Induction of apoptosis in human Caco-2 cells assessed as early apoptotic cells by measuring bright green patch incubated at 0.097 uM for 72 hrs by acridine orange-ethidium bromide dual staining based fluorescence microscopic analysis; type: functional, cell-based
# MCF7 [5] = assay: Induction of apoptosis in human MCF7 cells assessed as late apoptotic cells by measuring orange to red patch incubated at 0.097 uM for 72 hrs by acridine orange-ethidium bromide dual staining based fluorescence microscopic analysis; type: functional, cell-based
# HeLa [6] = assay: Anticancer activity against human HeLa cells assessed as round cells incubated at 0.097uM for 72 hrs by phase contrast inverted microscopic analysis; type: functional, cell-based
# HeLa [7] = assay: Induction of apoptosis in human HeLa cells assessed as late apoptotic cells by measuring orange to red patch incubated at 0.097 uM for 72 hrs by acridine orange-ethidium bromide dual staining based fluorescence microscopic analysis; type: functional, cell-based
# MCF7 [8] = assay: Anticancer activity against human MCF7 cells assessed as losing contact with neighbouring cells incubated at 0.097uM for 72 hrs by phase contrast inverted microscopic analysis; type: functional, cell-based
# Caco-2 [9] = assay: Induction of apoptosis in human Caco-2 cells assessed as total apoptotic cells incubated at 0.097 uM for 72 hrs by annexin V-FITC based propidium iodide dual staining assay (reference value: 0.04 +/- 0.005%); type: functional
# HepG2 [10] = assay: Induction of apoptosis in human HepG2 cells assessed as late apoptotic cells by measuring orange to red patch incubated at 0.11 uM for 72 hrs by acridine orange-ethidium bromide dual staining based fluorescence microscopic analysis; type: functional, cell-based
# HepG2 [11] = assay: Induction of apoptosis in human HepG2 cells assessed as viable cells incubated at 0.11 uM for 72 hrs by annexin V-FITC based propidium iodide dual staining assay (reference value: 97.27%); type: functional; conditions: read-out: Activity
# HeLa [12] = assay: Induction of apoptosis in human HeLa cells assessed as total apoptotic cells incubated at 0.11 uM for 72 hrs by annexin V-FITC based propidium iodide dual staining assay (reference value: 0 +/- 0.035%); type: functional
# HeLa [13] = assay: Induction of apoptosis in human HeLa cells assessed as necrotic cells incubated at 0.11 uM for 72 hrs by annexin V-FITC based propidium iodide dual staining assay (reference value: 0%); type: functional
# Caco-2 [14] = assay: Induction of apoptosis in human Caco-2 cells assessed as late apoptotic cells incubated at 0.11 uM for 72 hrs by annexin V-FITC based propidium iodide dual staining assay (reference value: 0.02%); type: functional
# dsDNA = assay: Induction of damage in dsDNA (unknown origin) assessed as DNA disruption by measuring damage constant at 100 uM incubated for 2.5 hrs by EvaGreen based fluorescence plate reader analysis; type: nucleic-acid assay
# MCF7 [15] = assay: Induction of cell cycle arrest in human MCF7 cells assessed as accumulation of cells at sub-G0/G1 phase incubated for 24 hrs; type: functional, cell-based
# HeLa [16] = assay: Induction of apoptosis in human HeLa cells assessed as late apoptotic cells incubated at 0.11 uM for 72 hrs by annexin V-FITC based propidium iodide dual staining assay (reference value: 0%); type: functional
# Caco-2 [17] = assay: Induction of apoptosis in human Caco-2 cells assessed as early apoptotic cells incubated at 0.11 uM for 72 hrs by annexin V-FITC based propidium iodide dual staining assay (reference value: 0.07%); type: functional
# HepG2 [18] = assay: Induction of apoptosis in human HepG2 cells assessed as late apoptotic cells incubated at 0.11 uM for 72 hrs by annexin V-FITC based propidium iodide dual staining assay (reference value: 0.66%); type: functional
# MCF7 [19] = assay: Induction of apoptosis in human MCF7 cells assessed as total apoptotic cells incubated at 0.11 uM for 72 hrs by annexin V-FITC based propidium iodide dual staining assay (reference value: 0.04 %); type: functional
# MCF7 [20] = assay: Induction of apoptosis in human MCF7 cells assessed as necrotic cells incubated at 0.017 uM for 72 hrs by annexin V-FITC based propidium iodide dual staining assay (reference value: 0.03%); type: functional
# HeLa [21] = assay: Induction of apoptosis in human HeLa cells assessed as late apoptotic cells incubated at 0.017 uM for 72 hrs by annexin V-FITC based propidium iodide dual staining assay (reference value: 0%); type: functional
# HeLa [22] = assay: Induction of apoptosis in human HeLa cells assessed as early apoptotic cells incubated at 0.017 uM for 72 hrs by annexin V-FITC based propidium iodide dual staining assay (reference value: 2.77%); type: functional
# HeLa [23] = assay: Induction of apoptosis in human HeLa cells assessed as necrotic cells incubated at 0.017 uM for 72 hrs by annexin V-FITC based propidium iodide dual staining assay (reference value: 0%); type: functional
# HeLa [24] = assay: Induction of oxidative stress in human HeLa cells assessed as cell death by measuring redox alteration fluorescence incubated at 0.027 uM for 72 hrs in presence of dihydro dichlorofluorescein diacetate by DCFH-DA based flow cytometric analysis relative to control; type: functional
# MCF7 [25] = assay: Induction of oxidative stress in human MCF7 cells assessed as cell death by measuring redox alteration fluorescence incubated at 0.017 uM for 72 hrs in presence of dihydro dichlorofluorescein diacetate by DCFH-DA based flow cytometric analysis relative to control; type: functional
# MCF7 [26] = assay: Induction of apoptosis in human MCF7 cells assessed as early apoptotic cells incubated at 0.098 uM for 72 hrs by annexin V-FITC based propidium iodide dual staining assay (reference value: 0.06%); type: functional
# Caco-2 [27] = assay: Anticancer activity against human Caco-2 cells assessed as round cells incubated at 0.098uM for 72 hrs by phase contrast inverted microscopic analysis; type: functional, cell-based
# Caco-2 [28] = assay: Induction of oxidative stress in human Caco-2 cells assessed as cell death by measuring redox alteration fluorescence incubated at 0.027 uM for 72 hrs in presence of dihydro dichlorofluorescein diacetate by DCFH-DA based flow cytometric analysis relative to control; type: functional
# Caco-2 [29] = assay: Induction of apoptosis in human Caco-2 cells assessed as late apoptotic cells by measuring orange to red patch incubated at 0.098 uM for 72 hrs by acridine orange-ethidium bromide dual staining based fluorescence microscopic analysis; type: functional, cell-based
# HeLa [30] = assay: Induction of apoptosis in human HeLa cells assessed as late apoptotic cells by measuring orange to red patch incubated at 0.098 uM for 72 hrs by acridine orange-ethidium bromide dual staining based fluorescence microscopic analysis; type: functional, cell-based
# Caco-2 [31] = assay: Anticancer activity against human Caco-2 cells assessed as cell shrinkage incubated at 0.098uM for 72 hrs by phase contrast inverted microscopic analysis; type: functional, cell-based
# HepG2 [32] = assay: Anticancer activity against human HepG2 cells assessed as smaller cells incubated at 0.098uM for 72 hrs by phase contrast inverted microscopic analysis; type: functional, cell-based
# HepG2 [33] = assay: Induction of apoptosis in human HepG2 cells assessed as late apoptotic cells by measuring orange to red patch incubated at 0.098 uM for 72 hrs by acridine orange-ethidium bromide dual staining based fluorescence microscopic analysis; type: functional, cell-based
structure (smiles),measurement,setting,value
NS(=O)(=O)c1ccc(-n2cc(CN3C(=O)CN(/N=C/c4ccc([N+](=O)[O-])o4)C3=O)nn2)cc1,Activity,Caco-2 [1],30.95%
same,Activity,HeLa [2],17.31%
same,Activity,MCF7 [3],60.48%
same,Activity,Caco-2 [4],Active
same,Activity,MCF7 [5],Active
same,Activity,HeLa [6],Active
same,Activity,HeLa [7],Active
same,Activity,MCF7 [8],Active
same,Activity,Caco-2 [9],36.26%
C#CCN1C(=O)CN(/N=C/c2ccc([N+](=O)[O-])o2)C1=O,Activity,HepG2 [10],Active
same,viability at 0.11 µM,HepG2 [11],32.1%
same,Activity,HeLa [12],25.17%
same,Activity,HeLa [13],2.48%
same,Activity,Caco-2 [14],42.24%
same,Activity,dsDNA,8.41
same,Activity,MCF7 [15],Active
same,Activity,HeLa [16],22.69%
same,Activity,Caco-2 [17],4.84%
same,Activity,HepG2 [18],59.49%
same,Activity,MCF7 [19],38.72%
O=c1[nH]cc(F)c(=O)[nH]1 [FLUOROURACIL],Activity,MCF7 [20],0.68%
same,Activity,HeLa [21],3.4%
same,Activity,HeLa [22],7.6%
same,Activity,HeLa [23],0.89%
same,Activity,HeLa [24],4.91%
O=C(CN1C(=O)CN(/N=C/c2ccc([N+](=O)[O-])o2)C1=O)c1ccc(Cl)cc1,Activity,MCF7 [25],34.7%
same,Activity,MCF7 [26],4.77%
same,Activity,Caco-2 [27],Active
same,Activity,Caco-2 [28],54.7%
same,Activity,Caco-2 [29],Active
same,Activity,HeLa [30],Active
same,Activity,Caco-2 [31],Active
same,Activity,HepG2 [32],Active
same,Activity,HepG2 [33],Active
